Measured values as given in ChEMBL document CHEMBL2202958, “Development of potent macrocyclic inhibitors of genotype 3a HCV NS3/4A protease” (Bioorg Med Chem Lett, 2012).

Key:
[1] = Drug level in Sprague-Dawley rat liver at 5 mg/kg, po after 4 hrs; assay type: ADME, organism-based; design: dose 5 mg/kg, route oral; conditions: read-out: Drug uptake
Hepatitis C virus [2] = test: Antiviral activity against HCV1b con1 infected in human Huh-7 cells assessed as inhibition of viral replication after 24 hrs in presence of 50% normal human serum; assay type: functional, organism-based, Hepacivirus hominis; conditions: Con1, Huh-7, 24 h
Hepatitis C virus [3] = test: Antiviral activity against HCV1b con1 infected in human Huh-7 cells assessed as inhibition of viral replication after 24 hrs in presence of 10% fetal bovine serum; assay type: functional, organism-based, Hepacivirus hominis; conditions: Con1, Huh-7, 24 h
[4] = Inhibition of HCV3a NS3/4A protease by time-resolved fluorescence assay; design: species or system Hepatitis C virus subtype 3a
[5] = Inhibition of HCV1b BK NS3/4A protease expressed in Escherichia coli after 1 hr by time-resolved fluorescence assay; design: species or system Hepatitis C virus (isolate BK)

concentration at 4 h [1] [µM]	IC50 (Hepatitis C virus [3]) [nM]	Ki [4] [nM]	Compound	IC50 (Hepatitis C virus [2]) [nM]	Ki [5] [nM]
0.1	5	7.5	C=C[C@@H]1C[C@]1(NC(=O)[C@@H]1C[C@@H]2CN1C(=O)[C@H](C1CCCCC1)NC(=O)OCC(C)(C)CCCc1cc3c(cc(N4CCCCC4)nc3cc1OC)O2)C(=O)NS(=O)(=O)C1CC1	26	0.07
0.07	85	23	C=C[C@@H]1C[C@]1(NC(=O)[C@@H]1C[C@@H]2CN1C(=O)[C@H](C1CCCCC1)NC(=O)OCC(C)(C)CCCc1cc3c(cc(O)nc3cc1OC)O2)C(=O)NS(=O)(=O)C1CC1	460	0.07
22	9	0.9	C=C[C@@H]1C[C@]1(NC(=O)[C@@H]1C[C@@H]2CN1C(=O)[C@H](C1CCCC1)NC(=O)OCC(C)(C)CCCc1cc3c(nc4cc(F)ccc4c3cc1OC)O2)C(=O)NS(=O)(=O)C1CC1	43	< 0.02
6.1	3	18	C=C[C@@H]1C[C@]1(NC(=O)[C@@H]1C[C@@H]2CN1C(=O)[C@H](C1CCCCC1)NC(=O)OCC(C)(C)CCCc1cc3c(cc(-c4ccc(OC)cc4)nc3cc1OC)O2)C(=O)NS(=O)(=O)C1CC1	25	0.07
	11	29	C=C[C@@H]1C[C@]1(NC(=O)[C@@H]1C[C@@H]2CN1C(=O)[C@H](C1CCCCC1)NC(=O)OCC(C)(C)CCCc1cc3c(cc(-c4ccc(F)cc4)nc3cc1OC)O2)C(=O)NS(=O)(=O)C1CC1	110	0.18
16	4	1.9	C=C[C@@H]1C[C@]1(NC(=O)[C@@H]1C[C@@H]2CN1C(=O)[C@H](C1CCCC1)NC(=O)OCC(C)(C)CCCc1cc3c(nc4cc(C)ccc4c3cc1OC)O2)C(=O)NS(=O)(=O)C1CC1	15	< 0.02
0.03	36	1	C=C[C@@H]1C[C@]1(NC(=O)[C@@H]1C[C@@H]2CN1C(=O)[C@H](C1CCCC1)NC(=O)OCC(C)(C)CCCc1cc3c(cc(OCc4ncn(C)n4)nc3cc1OC)O2)C(=O)NS(=O)(=O)C1CC1	170	0.03
0.8	5	1.6	C=C[C@@H]1C[C@]1(NC(=O)[C@@H]1C[C@@H]2CN1C(=O)[C@H](C1CCCC1)NC(=O)OCC(C)(C)CCCc1cc3c(cc(OCc4csc(C)n4)nc3cc1OC)O2)C(=O)NS(=O)(=O)C1CC1	26	0.09
0.8	43	1.8	C=C[C@@H]1C[C@]1(NC(=O)[C@@H]1C[C@@H]2CN1C(=O)[C@H](C1CCCCC1)NC(=O)OCC(C)(C)CCCc1cc3c(cc4nccn4c3cc1OC)O2)C(=O)NS(=O)(=O)C1CC1	140	0.04
9.9	3.6	21	C=C[C@@H]1C[C@]1(NC(=O)[C@@H]1C[C@@H]2CN1C(=O)[C@H](C1CCCCC1)NC(=O)OCC(C)(C)CCCc1cc3c(cc(-c4ccccc4)nc3cc1OC)O2)C(=O)NS(=O)(=O)C1CC1	28	0.05
4.6	5	15	C=C[C@@H]1C[C@]1(NC(=O)[C@@H]1C[C@@H]2CN1C(=O)[C@H](C1CCCCC1)NC(=O)OCC(C)(C)CCCc1cc3c(cc(OC4CCCC4)nc3cc1OC)O2)C(=O)NS(=O)(=O)C1CC1	34	0.05
0.2	27	55	C=C[C@@H]1C[C@]1(NC(=O)[C@@H]1C[C@@H]2CN1C(=O)[C@H](C1CCCCC1)NC(=O)OCC(C)(C)CCCc1cc3c(cc(-c4cccnc4)nc3cc1OC)O2)C(=O)NS(=O)(=O)C1CC1	92	
6.3	7	62	C=C[C@@H]1C[C@]1(NC(=O)[C@@H]1C[C@@H]2CN1C(=O)[C@H](C1CCCCC1)NC(=O)OCC(C)(C)CCCc1cc3c(cc(-c4ccccc4OC)nc3cc1OC)O2)C(=O)NS(=O)(=O)C1CC1	31	0.09
	39	7.6	C=C[C@@H]1C[C@]1(NC(=O)[C@@H]1C[C@@H]2CN1C(=O)[C@H](C1CCCCC1)NC(=O)OCC(C)(C)CCCc1cc3c(cc(NC4CCCCC4)nc3cc1OC)O2)C(=O)NS(=O)(=O)C1CC1	1200	0.12
5.4	4	4.1	C=C[C@@H]1C[C@]1(NC(=O)[C@@H]1C[C@@H]2CN1C(=O)[C@H](C1CCCCC1)NC(=O)OCC(C)(C)CCCc1cc3c(cc(OC)nc3cc1OC)O2)C(=O)NS(=O)(=O)C1CC1	19	0.04
	7	36	C=C[C@@H]1C[C@]1(NC(=O)[C@@H]1C[C@@H]2CN1C(=O)[C@H](C1CCCC1)NC(=O)OCC(C)(C)CCCc1cc3c(nc4ccc(Cl)cc4c3cc1OC)O2)C(=O)NS(=O)(=O)C1CC1	31	< 0.02
2.7	4	2	C=C[C@@H]1C[C@]1(NC(=O)[C@@H]1C[C@@H]2CN1C(=O)[C@H](C1CCCC1)NC(=O)OCC(C)(C)CCCc1cc3c(cc(OCc4csc(C(C)C)n4)nc3cc1OC)O2)C(=O)NS(=O)(=O)C1CC1	26	< 0.02
27	3	1.7	C=C[C@@H]1C[C@]1(NC(=O)[C@@H]1C[C@@H]2CN1C(=O)[C@H](C1CCCC1)NC(=O)OCC(C)(C)CCCc1cc3c(nc4ccccc4c3cc1OC)O2)C(=O)NS(=O)(=O)C1CC1	29	< 0.02
40	6	7.6	C=C[C@@H]1C[C@]1(NC(=O)[C@@H]1C[C@@H]2CN1C(=O)[C@H](C1CCCCC1)NC(=O)OCC(C)(C)CCCc1cc3c(cc(OCC)nc3cc1OC)O2)C(=O)NS(=O)(=O)C1CC1	43	0.09
0.7	33	5.2	C=C[C@@H]1C[C@]1(NC(=O)[C@@H]1C[C@@H]2CN1C(=O)[C@H](C1CCCCC1)NC(=O)OCC(C)(C)CCCc1ccc3c(c1)c(cc1nccn13)O2)C(=O)NS(=O)(=O)C1CC1	180	0.08
6.7	6	78	C=C[C@@H]1C[C@]1(NC(=O)[C@@H]1C[C@@H]2CN1C(=O)[C@H](C1CCCCC1)NC(=O)OCC(C)(C)CCCc1cc3c(cc(-c4cccc(OC)c4)nc3cc1OC)O2)C(=O)NS(=O)(=O)C1CC1	19	0.07
2.6	4	1.1	C=C[C@@H]1C[C@]1(NC(=O)[C@@H]1C[C@@H]2CN1C(=O)[C@H](C1CCCC1)NC(=O)OCC(C)(C)CCCc1cc3c(cc(OCc4ncco4)nc3cc1OC)O2)C(=O)NS(=O)(=O)C1CC1	16	< 0.02
